Read-outs that look alike come from different tables or passages of the source.

17 compounds from patent US9695133B2, “Quinazolinone-based oncogenic-RAS-selective lethal compounds and their use” (THE TRUSTEES OF COLUMBIA UNIVERSITY IN THE CITY OF NEW YORK, priority 2012, dated 2017) can be followed below.

The test system of data set [1] is HT-1080 cells. The data set is described as follows: Cell death rescue by ALOX and COX inhibitors in HT-1080 cells. It counts as cell-based, human. The note with it: for suppression of cell death induced by RSL compounds / suppression of cell death induced by non-RSL compounds: HT-1080 cells, 10 μM BAI or 50 μM ZIL, 24 hours; for suppression of erastin-induced cell death: inhibitor concentrations of Table 2. As to the method:
HT-1080 cells were seeded in 384-well plates, treated with the indicated amount of compounds with or without 10 μM of BAI or 50 μM of ZIL for 24 hours. The percent growth inhibition was determined using alamar blue.
Lethal compounds were added to HT-1080 cells in the presence or absence of ALOX or COX inhibitors in a 2-fold dilution series. The concentrations of the inhibitors are listed along with vendor information in Table 2. Cell viability was determined using alamar blue and percent growth inhibition calculated as described above.

In a further data set the test system is GPX4. The data set is described as follows: GPX4 knockdown (siGPX4) in HT-1080 cells.
For data set [2], the system named is GFP-ALOX5. Description: GFP-ALOX5 translocation in HT-1080 cells. It counts as cell-based, human. As to the method:
HT-1080 cells stably expressing GFPALOX5 were treated with the indicated compounds under the conditions detailed in FIG. 13b. […] Note that digioxin (DIG) did translocate GFP-ALOX5 to the perinuclear membrane region in a small portion of the cell population (arrow). Digioxin is known to increase cellular calcium concentration that can translocate GFP-ALOX5, similarly to ionomycin. Scale bars, 60 μm.
(§1) A cDNA of ALOX5 (GeneBank ID: BC130332.1) was cloned into a pBabe-puro vector to express GFP fused ALOX5 (N-terminal GFP fusion) in cells. The plasmid was transfected into PLAT-GP cells (Cell Biolabs Inc., cat # RV-103, San Diego, Calif.) along with a pVSV-G helper plasmid to produce retrovirus harboring the expression plasmid. 0.2 million target cells (BJeH, BJeHLT, BJeLR or HT-1080 cells) were seeded in 10 cm tissue culture dishes and incubated in the tissue culture incubator for 1 day. A frozen stock of retrovirus solution was thawed at 37° C. for 2 minutes, and polybrene (Sigma, cat. # H9268) was added at a final concentration of 8 μg/mL. Culture medium was replaced with virus/polybrene mix and the culture dish was incubated for two hours with rocking every 30 minutes. After 2 hours, 10 mL of growth media was added to culture dish, and the culture was incubated further for 2 days. Cell lines stably expressing GFP-ALOX5 protein were selected using 1.5 μg/mL puromycin and used for the GFP-ALOX5 translocation assay.
Next, GFP-ALOX5-expressing HT-1080 cells were treated with these non-RSL and RSL compounds and changes in the location of GFP-ALOX5 were monitored as a measure of ALOX protein activation. […] Digoxin is known to elevate intracellular calcium (McGarry et al., 1993), which is likely to cause the translocation of GFP-ALOX5, similar to ionomycin. Note that ionomycin and digoxin are not RSL compounds and induce translocation of GFP-ALOX5 non-specifically in the BJ-derived cell lines (FIGS. 7 and 13). The results highlight the importance of selective ALOX activation for the induction of the RSL phenotype.

Data set [3] has as its system HT-1080 cells. The note with it: 24 hours.
Another data set relates to U-2 OS cells. Description: U-2 OS cell viability (alamar blue) with TBHP or NAC. It counts as cell-based. In general terms: Resazurin is reduced to fluorescent resorufin, in cell work by metabolically active cells.
For a further data set, the system named is BJ-derived cell lines. The data set is described as follows: GSH depletion assay in BJ-derived cell lines. The data set is classed as cell-based, human. Conditions: BJeLR cells, lethal RSL3 dose. As to the method:
Bar graph: mean+s.d.; n=3. *, P<0.05.
2 million cells were seeded on 10 cm dishes. The next day, cells were treated with compounds to induce GSH depletion followed by harvesting to determine cell number. Two million live cells from each sample were transferred to new tubes, and centrifuged at 1,000 rpm at 4° C. for 5 minutes. The cell pellet was resuspended in 1 mL of PB buffer (10 mM sodium phosphate buffer, 1 mM EDTA, pH 7) and sonicated using 60 Joule energy. The lysate was centrifuged at 13,200 rpm at 4° C. for 10 minutes, and then the cleared lysate was used to determine the amount of GSH in the sample. The QuantiChrome glutathione assay kit (BioAssay Systems, cat # DIGT-250) was used and the product instructions were followed to determine GSH level.

Data set [4] deals with GFP-ALOX5. Description: GFP-ALOX5 translocation in BJ-derived cell lines. It counts as cell-based, human. As to the method: as §1
ALOX5 is one of the six human ALOX genes and plays a critical role in leukotriene synthesis. In the basal state, the ALOX5 protein remains in the nucleus; however, upon activation, it translocates to the nuclear membrane (Chen et al., 2001). […] Second, calcium chelators were not effective in suppressing erastin-induced cell death (Wolpaw et al., 2011).

The next data set relates to ALOX15B and ALOXE3. The data set is described as follows: ALOX15B / ALOXE3 siRNA knockdown and lethal compound sensitivity in HT-1080 cells. It counts as cell-based, human. As to the method: HT-1080 cells were transfected with siRNA pools targeting either ALOX15B or ALOXE3, and then, treated with the indicated RSL compounds in 2-fold dilution series. 24 hours after compound treatment, alamar blue was added to the culture at a final concentration of 10% in growth media to determine cell viability. The percent growth inhibition was calculated from the fluorescence intensity of each well in 384-well assay plates. Data points represent mean of duplicates.
Small interfering RNA (siRNA) pools targeting ALOX15B and ALOXE3 were obtained from Dharmacon Technologies (Lafayette, Colo.). On the day of reverse-transfection, a cocktail of 1 mL of Opti-MEM (Invitrogen Corp., Carlsbad, Calif.), 6 μL of Lipofectamine RNAiMAX (Invitrogen), and 5 μL of 10 μM siRNA were prepared and transferred to each well of a 6-well plate. The 6-well plate was put in the tissue culture incubator for 20 minutes to allow the formation of transfection mixture. While the complex was forming, HT-1080 cells were trypsinized and the cell number was determined using ViCell (Trypan Blue). 200,000 cells were prepared in 1 mL of growth media with 2× serum, and then, the cell suspension was transferred to each well containing 1 mL of the transfection mix. The 6-well plate was returned to the incubator and the culture grown for 2 days. […]

A further data set deals with BJeLR cells. The data set is described as follows: Lipid peroxide detection using BODIPY-C11 in BJ-derived cells. The data set is classed as cell-based, human.
Data set [5] deals with BJeH, BJeHLT, BJeLR and DRD cells. The data set is classed as cell-based.

`O=c1cc(-c2ccccc2)oc2cc(O)c(O)c(O)c12` [BAI, Baicalein]: in the data set on HT-1080 cells [1], the “suppression of cell death induced by RSL compounds” value is on record as “strongly suppressed cell death induced by all RSL compounds”, the “suppression of cell death induced by non-RSL compounds” value is given as “not able to suppress cell death induced by eleven non-RSL compounds” and the “suppression of erastin-induced cell death” value is “strongly suppressed erastin-induced cell death”.
As to `N#CC(=Cc1ccc(O)c(O)c1)C(=O)OCC=Cc1ccccc1` [CDC, cinnamyl-3,4-dihydroxy-a-cyanocinnamate], in the data set with HT-1080 cells [1], the “suppression of erastin-induced cell death” value is reported as “strongly suppressed erastin-induced cell death”.
Consider `N#CC(=C(/N)Sc1ccccc1N)/C(C#N)=C(\N)Sc1ccccc1N` [Compound U0126], for which, in the data set on GPX4, the “rescue of siGPX4-induced cell death” value was “rescued”.
For the compound `CCc1ccc(/C=C2\SC(=S)N(CCC(=O)NCCCN3CCOCC3)C2=O)cc1` [DPI2], the “GFP-ALOX5 translocation to the nuclear membrane” value (from here on “GFP-ALOX5 translocation”) with GFP-ALOX5 [2] is on record as “translocated GFP-ALOX5 to the nuclear membrane”.
With `CC(C)c1onc(C(=O)N2CCN(C(c3ccccc3)c3ccccc3)CC2)c1[N+](=O)[O-]` [DPI10], the “GFP-ALOX5 translocation” value in the data set with GFP-ALOX5 [2] was “translocated GFP-ALOX5 to the nuclear membrane”.
Take `Nc1nc(CCl)nc(Nc2ccc3ccccc3c2)n1` [DPI17]: the “GFP-ALOX5 translocation” value with GFP-ALOX5 [2] was “translocated GFP-ALOX5 to the nuclear membrane”.
`N[C@@H](CCC(=O)N[C@@H](CS)C(=O)NCC(=O)O)C(=O)O` [GSH, reduced glutathione]: the “rescue from erastin lethality by GSH supplementation” value in the data set with HT-1080 cells [3] (1 mM GSH) is recorded as “rescued cells from erastin lethality”.
For `COc1ccc2c(c1)c(CC(=O)O)c(C)n2C(=O)c1ccc(Cl)cc1` [Indomethacin], the “suppression of erastin-induced cell death” value in the data set on HT-1080 cells [1] was “only minimally effective in suppressing erastin lethality”.
Take `CC(=O)N[C@@H](CS)C(=O)O` [NAC, N-acetyl-cysteine]: in the data set with U-2 OS cells, the “rescue from erastin lethality by NAC supplementation” value is listed as “rescued cells from erastin lethality”.
For `c1ccc2c(c1)SCc1c-2[nH]c2ccccc12` [PD-146176], the “suppression of erastin-induced cell death” value with HT-1080 cells [1] was “strongly suppressed erastin-induced cell death”.
As to `COC(=O)c1ccc([C@@H]2c3[nH]c4ccccc4c3C[C@@H](C(=O)OC)N2C(=O)CCl)cc1` [RSL3], the “cellular GSH level” value with BJ-derived cell lines is on record as “remained unaffected”. For the same compound, the “GFP-ALOX5 translocation” value with GFP-ALOX5 [4] is on record as “caused GFP-ALOX5 translocation to the nuclear membrane”. In the data set with ALOX15B and ALOXE3, the “effect of ALOX15B knockdown on compound-induced cell death” value was “sensitized cells to RSL3-induced cell death” and the “effect of ALOXE3 knockdown on compound-induced cell death” value is “suppressed”. For the same compound, the “lipid peroxide generation (BODIPY-C11 fluorescence)” value in the data set with BJeLR cells is on record as “generation of lipid peroxides”. Besides, the selective lethality entry in [5] (0.4 μM RSL3, BJeLR vs BJeHLT cells) is reported as “exhibited selective lethality in BJeLR cells”.
In the case of `CN[C@@H]1C[C@H]2O[C@@](C)([C@@H]1OC)n1c3ccccc3c3c4c(c5c6ccccc6n2c5c31)C(=O)NC4` [STS, Staurosporine], the “GFP-ALOX5 translocation” value in the data set with GFP-ALOX5 [2] is “did not”.
As for `CC(c1cc2ccccc2s1)N(O)C(N)=O` (stereo not shown) [Zileuton], in the data set on GPX4 (10 μM U0126, 100 μM Vit. E, 100 μM DFOM, 50 μM ZIL), the “rescue of siGPX4-induced cell death” value is “rescued”. Besides, in the data set on HT-1080 cells [1], the “suppression of cell death induced by RSL compounds” value is listed as “strongly suppressed cell death induced by all RSL compounds”, the “suppression of cell death induced by non-RSL compounds” value is given as “not able to suppress cell death induced by eleven non-RSL compounds” and the “suppression of erastin-induced cell death” value is on record as “strongly suppressed erastin-induced cell death”.
In the case of `C[C@H]1O[C@@H](O[C@H]2[C@@H](O)C[C@H](O[C@H]3[C@@H](O)C[C@H](O[C@H]4CC[C@@]5(C)[C@H](CC[C@@H]6[C@@H]5C[C@@H](O)[C@]5(C)[C@@H](C7=CC(=O)OC7)CC[C@]65O)C4)O[C@@H]3C)O[C@@H]2C)C[C@H](O)[C@@H]1O` [digoxin, Digoxin], in the data set with GFP-ALOX5 [2], the “GFP-ALOX5 translocation” value is “induced GFP-ALOX5 translocation”.
In the case of `C[C@H](CCC(=O)O)C[C@H](C)C[C@H](C)C(=O)/C=C(\O)[C@H](C)C[C@H](C)C/C=C/[C@@H](C)[C@@H](O)[C@@H](C)[C@@H](O)C[C@@H]1CC[C@@](C)([C@H]2CC[C@@](C)([C@@H](C)O)O2)O1` [ionomycin], the “GFP-ALOX5 translocation” value with GFP-ALOX5 [4] was “induced localization of GFP-ALOX5 to the nuclear membrane in all BJ-derived cell lines”.
As to Vitamin E [Vit. E], in the data set with GPX4, the “rescue of siGPX4-induced cell death” value was “rescued”.
With lysophosphatidyl choline [lyso-PC], the “effect of lyso-PC on erastin-induced cell death” value in the data set with HT-1080 cells [3] is on record as “modestly sensitized cells to erastin-induced cell death”. Moreover, the “differential cytotoxicity between BJeH and BJeLR” value in data set [5] (lyso-PC alone, 24 hours) is “did not show differential cytotoxicity”.
